Columns and labels:
Candida albicans = test: Effect of antifungal compounds on fungal cells with Alamar Blue (fluorimetric metabolic oxidation-reduction indicator dye assay); format: cell-based; conditions: for characteristic "fingerprint" with metabolic oxidation-reduction indicator dye (statement on negative controls): for fungal cells, summary statement; for characteristic pattern or "fingerprint": increased metabolic oxidation-reduction activity (Alamar Blue fluorescence) relative to untreated control cells: Candida albicans 1x10^7 cells/mL, test compound two-fold dilutions from 64 μg/mL, 37° C., readings 0-60 min, best seen at 15 min (FIG. 2)
From the text: Alamar Blue™ is an indicator dye formulated to measure quantitatively the proliferation of a variety of human or animal cells, bacteria, or fungi. It consists of an oxidation-reduction (REDOX) indicator that yields colorimetric and fluorimetric changes in response to metabolic activity (electron transport activity).
The relative effect of two BPI-derived peptides, XMP.391 (SEQ ID NO: 4) and XMP.445 (SEQ ID NO: 6), and the antifungal compound amphotericin B on fungal cells with the metabolic oxidation-reduction indicator dye Alamar Blue™ [AccuMed Int'l, Westlake, Ohio] was assessed as follows.
Candida albicans were grown in 75 mL Sabouraud's dextrose broth (SDB) for 5 hours at 30° C. Cells were pelleted by centrifiguation for 5 minutes in a Sorvall RT6000B centrifuge at 3,000 rpm (1500×g) and resuspended in 15 mL of fresh SDB. A 1:10 dilution of this suspension was used for an OD570 nm detennination. One OD unit is equivalent to 1×10^7 CFU/mL. Cells were adjusted to a concentration of 2×10^7 CFU/mL.
Test compounds XMP.391, XMP.445 and Amphotericin B (AMB) were two-fold serially diluted in SDB from a concentration of 128 μg/mL in a 96-well plate. This was done in triplicate with each well containing a volume of 100 μL. An equal volume of the yeast suspension was added to each well.
Alamar Blue™ was added at 20 μL per well and the initial (t=0) fluorescence readings were performed in a Molecular Devices SpectraMax Gemini plate reader. The excitation wavelength was 544 nm and the emission wavelength was measured at 590 nm. The plate was incubated at 37° C. and additional readings at 15, 30, 45 and 60 minutes were performed. Metabolic oxidation-reduction activity is detected by an increase in fluorescence emission.

[1] = system: E. coli (ATCC strain 8739); test: Effect of antibacterial compounds on bacteria with Alamar Blue (colorimetric OD595 assay); format: cell-based; conditions: for bacteria; summary statement
Procedure: E. coli (ATCC strain 8739) was incubated at 37° C. in 5 mL cation-adjusted Mueller Hinton Broth (CAMHB) for 3 hours to attain log phase growth. The bacteria were pelleted in a Sorvall RT6000B centrifuge for 5 minutes at 3,000 rpm (1.500×g ) and resuspended in 5 mL of fresh CAMHB. A 1:10 dilution was performed for an OD570 nm determination. One OD unit equals 1.25×10^9 CFU/mL. The bacterial suspension was adjusted to 1×10^8 CFU/mL.
This was done in triplicate with each well containing a volume of 100 μL. An equal volume of the bacterial suspension was added to each well. […] Alamar Blue™ was added at 20 μL per well. The “Blank” contained media and Alamar Blue™ only, without cells.
OD595 nm readings were performed in a Molecular Devices plate reader. This required that samples be centrifuged to pellet bacteria and related debris which would contribute to the OD595 nm reading. 150 μL were removed from the wells at various timepoints, centrifuged (2 minutes, 2,000 rpm) and 50 μL of supernatant was carefully transferred to a fresh 96-well plate for the reading. Timepoints were read at 0, 30, 60, 90 and 120 minutes. Metabolic oxidation-reduction activity is detected by an increase in OD in this colorimetric assay.

[2] = background statement on narrow therapeutic window; cited from earlier work
bacterial growth = conditions: background statement on narrow therapeutic window; cited from earlier work

Molecule	characteristic "fingerprint" with metabolic oxidation-reduction indicator dye (statement on negative controls) (Candida albicans)	characteristic pattern or "fingerprint": increased metabolic oxidation-reduction activity (Alamar Blue fluorescence) relative to untreated control cells (Candida albicans)	other results
antimycin	do not exhibit the characteristic “fingerprint,”	–	–
XMP.391: BPI-derived peptide, domain III-derived, SEQ ID NO: 4; structure described in Table 1 of U.S. Pat. No. 5,858,974 (KVGWLIQLFHKK)	–	known to produce this characteristic pattern	–
C[C@@H]1[C@H](O)[C@@H](C)/C=C/C=C/C=C/C=C/C=C/C=C/C=C/[C@H](O[C@@H]2O[C@H](C)[C@@H](O)[C@H](N)[C@@H]2O)C[C@@H]2O[C@](O)(C[C@@H](O)C[C@@H](O)[C@H](O)CC[C@@H](O)C[C@@H](O)CC(=O)O[C@H]1C)C[C@H](O)[C@H]2C(=O)O [amphotericin B]	do not exhibit the characteristic “fingerprint,”	did not show the “fingerprint.”	–
polymyxin	–	–	characteristic "fingerprint" with metabolic oxidation-reduction indicator dye (statement on negative controls) [1]: do not exhibit the characteristic “fingerprint,”
gentamicin	–	–	concentration that produces a toxic effect [2]: 12 µg/mL; concentration required to produce a therapeutic effect (bacterial growth): 8 µg/mL
OC(Cn1cncn1)(Cn1cncn1)c1ccc(F)cc1F [fluconazole]	do not exhibit the characteristic “fingerprint,”	–	–

Reference: patent US6436660B1, “Identification of novel antimicrobial agents using metabolic oxidation-reduction indicator dyes” (XOMA Technology Ltd., priority 1999, dated 2002)
